Assays:
[1] = test system: human peripheral blood mononuclear cells (PBMC); test: XTT cytotoxicity testing; type: cell-based; conditions: 2-64 μg/ml, vs drug free control
Method: The plates were maintained in a 37° C. incubator.
The cytotoxicity of kuraridin and its analogues were determined by the sodium 3′-[1-(phenylaminocarbonyl)-3,4-tetrazolium]-bis (4-methoxy-6-nitro) benzene sulfonic acid hydrate (XTT) assay.
Serial dilutions of the compounds ranging 2-64 μg/ml were incubated with PBMCs at 37° C. for 72 hrs.

[2] = test system: S. aureus ATCC25923 (methicillin sensitive); conditions: ATCC 25293; ECG with Kur
[3] = test system: panel of laboratory MRSA strains; test: MIC and combination tests, panel of laboratory strains

O=C(O[C@@H]1Cc2c(O)cc(O)cc2O[C@@H]1c1ccc(O)c(O)c1)c1cc(O)c(O)c(O)c1 [ECG, epicatechin gallate]
Cellular toxicity (XTT assay) [1]: not toxic | FIC [2]: 0.008 | MIC combine [2]: 4 µg/mL | MIC90 ([3]; Staphylococcus aureus, MRSA): 4 to 16 µg/mL | concentration for 99.9% inhibition ([3]; panel of laboratory strains): > 512 µg/mL
